Consider three molecules from article PMC3423592 (ACS chemical biology, 2012).

pKi: −log10 of the molar value. Bounds are passed on as bounds.

One assay relates to 4T1 cells. The assay is described as follows: 4T1 cell growth in 3D culture. The note with it: 3 μM GNF-2 added to 10 μM compound 4. Type of assay: cell-based.
The target of another assay is c-Src (Gallus gallus, UniProt P00523). Nature of the assay: continuous fluorimetric biochemical inhibition assay, c-Src. More on the design: species or system chicken. Particulars: read-out: Ki, c-Src; ATP = 100 μM, substrate peptide = 45 μM.
The test system of the next assay is HT-29. Nature of the assay: cell growth inhibition assay. Type of assay: cell-based. The note with it: read-out: GI50, HT-29; 72 h, WST-1.
For a further assay, the system named is SK-BR-3. The assay is described as follows: cell growth inhibition assay. Particulars: read-out: GI50, SK-BR-3; 72 h, WST-1. The format is cell-based. In general terms: Tetrazolium assays rely on reduction of a dye to a coloured formazan, in cell work by metabolically active cells.
Another assay relates to MCF7. Nature of the assay: cell growth inhibition assay. Particulars: read-out: GI50, MCF7; 72 h, WST-1. The format is cell-based.
The next assay concerns MDA-MB-453. Nature of the assay: cell growth inhibition assay. The note with it: read-out: GI50, MDA-MB-453; 72 h, WST-1. Type of assay: cell-based.
The subject of the next assay is NIH-3T3. Nature of the assay: cell growth inhibition assay. Type of assay: cell-based. Particulars: read-out: GI50, NIH-3T3; 72 h, WST-1; non-cancer cell line.
A further assay addresses ErbB2 (Homo sapiens, UniProt P04626). Nature of the assay: KINOMEscan profiling, ErbB2. The note with it: 10 μM.
Another assay concerns the target ErbB3 (Homo sapiens, UniProt P21860). Nature of the assay: KINOMEscan profiling, ErbB3. The note with it: 10 μM.
For assay [1], the system named is diverse panel of 200 kinases. Nature of the assay: KINOMEscan ATP-site competition binding, diverse kinase panel profiling. Particulars: 10 μM.
Assay [2] has as its system diverse panel of 200 kinases. The note with it: in this panel; cited from earlier work.

Chain of ErbB3 (P21860 20-1342): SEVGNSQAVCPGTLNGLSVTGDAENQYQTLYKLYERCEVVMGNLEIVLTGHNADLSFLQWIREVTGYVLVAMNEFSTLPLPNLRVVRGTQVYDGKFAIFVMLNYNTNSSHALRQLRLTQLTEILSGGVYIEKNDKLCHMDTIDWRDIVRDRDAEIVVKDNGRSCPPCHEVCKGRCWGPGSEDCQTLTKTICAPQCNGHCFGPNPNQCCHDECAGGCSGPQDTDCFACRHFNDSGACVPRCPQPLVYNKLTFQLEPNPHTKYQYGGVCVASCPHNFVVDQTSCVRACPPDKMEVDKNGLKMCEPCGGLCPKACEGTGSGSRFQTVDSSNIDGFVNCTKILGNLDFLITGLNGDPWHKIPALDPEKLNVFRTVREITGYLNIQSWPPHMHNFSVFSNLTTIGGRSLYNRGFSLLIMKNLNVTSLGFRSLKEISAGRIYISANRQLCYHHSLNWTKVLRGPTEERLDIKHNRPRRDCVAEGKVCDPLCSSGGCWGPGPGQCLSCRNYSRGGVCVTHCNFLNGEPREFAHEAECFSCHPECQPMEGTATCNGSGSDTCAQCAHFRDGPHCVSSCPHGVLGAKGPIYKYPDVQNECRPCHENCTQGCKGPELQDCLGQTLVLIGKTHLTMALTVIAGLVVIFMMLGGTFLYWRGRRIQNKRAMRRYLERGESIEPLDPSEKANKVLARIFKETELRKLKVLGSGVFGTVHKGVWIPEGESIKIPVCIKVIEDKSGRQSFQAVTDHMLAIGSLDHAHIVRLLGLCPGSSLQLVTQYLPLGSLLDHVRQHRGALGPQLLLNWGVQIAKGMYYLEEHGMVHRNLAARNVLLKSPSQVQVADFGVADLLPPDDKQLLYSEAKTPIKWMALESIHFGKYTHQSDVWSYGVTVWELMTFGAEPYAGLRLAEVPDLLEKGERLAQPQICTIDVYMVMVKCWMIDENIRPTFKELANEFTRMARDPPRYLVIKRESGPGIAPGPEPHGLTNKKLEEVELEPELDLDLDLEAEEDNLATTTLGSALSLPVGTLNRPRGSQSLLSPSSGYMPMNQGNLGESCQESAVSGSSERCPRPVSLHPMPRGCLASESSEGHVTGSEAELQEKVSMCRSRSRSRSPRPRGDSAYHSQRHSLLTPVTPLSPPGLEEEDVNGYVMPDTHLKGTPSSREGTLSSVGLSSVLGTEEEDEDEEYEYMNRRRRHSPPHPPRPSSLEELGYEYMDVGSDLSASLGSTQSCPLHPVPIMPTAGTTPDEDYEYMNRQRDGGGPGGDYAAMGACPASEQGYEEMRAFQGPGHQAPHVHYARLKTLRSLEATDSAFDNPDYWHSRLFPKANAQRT
Chain of ErbB2 (P04626 23-1255): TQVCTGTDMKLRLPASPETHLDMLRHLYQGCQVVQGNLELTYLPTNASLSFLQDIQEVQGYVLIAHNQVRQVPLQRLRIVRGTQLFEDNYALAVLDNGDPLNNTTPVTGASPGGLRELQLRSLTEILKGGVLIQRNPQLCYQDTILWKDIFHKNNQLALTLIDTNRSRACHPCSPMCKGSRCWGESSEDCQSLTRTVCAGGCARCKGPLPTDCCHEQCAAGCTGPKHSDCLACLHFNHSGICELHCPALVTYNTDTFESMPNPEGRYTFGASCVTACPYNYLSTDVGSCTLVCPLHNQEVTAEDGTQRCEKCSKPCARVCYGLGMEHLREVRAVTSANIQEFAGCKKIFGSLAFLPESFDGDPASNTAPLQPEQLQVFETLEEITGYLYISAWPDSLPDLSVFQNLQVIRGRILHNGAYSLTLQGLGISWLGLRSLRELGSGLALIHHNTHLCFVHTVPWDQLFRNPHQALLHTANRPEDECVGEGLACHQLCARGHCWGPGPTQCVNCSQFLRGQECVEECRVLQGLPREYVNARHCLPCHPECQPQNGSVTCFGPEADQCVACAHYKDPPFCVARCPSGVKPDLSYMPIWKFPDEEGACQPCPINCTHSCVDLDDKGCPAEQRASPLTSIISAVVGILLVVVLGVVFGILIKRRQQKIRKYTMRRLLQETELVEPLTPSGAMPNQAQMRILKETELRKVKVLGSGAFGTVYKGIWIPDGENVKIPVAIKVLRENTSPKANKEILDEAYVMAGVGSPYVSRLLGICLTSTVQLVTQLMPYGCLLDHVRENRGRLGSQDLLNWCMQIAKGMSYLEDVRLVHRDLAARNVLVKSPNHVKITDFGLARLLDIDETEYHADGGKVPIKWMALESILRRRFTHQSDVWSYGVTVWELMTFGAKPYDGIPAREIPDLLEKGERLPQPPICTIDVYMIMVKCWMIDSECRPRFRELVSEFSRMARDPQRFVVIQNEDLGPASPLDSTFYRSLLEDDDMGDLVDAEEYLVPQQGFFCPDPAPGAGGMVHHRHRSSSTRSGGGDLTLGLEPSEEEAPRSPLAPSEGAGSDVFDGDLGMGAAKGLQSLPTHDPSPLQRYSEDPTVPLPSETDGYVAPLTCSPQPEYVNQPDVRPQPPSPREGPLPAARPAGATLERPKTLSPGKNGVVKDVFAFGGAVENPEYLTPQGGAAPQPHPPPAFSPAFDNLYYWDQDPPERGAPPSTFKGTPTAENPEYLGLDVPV

With `NC(=O)c1cccc(-c2cc(Nc3ccc(OC(F)(F)F)cc3)ncn2)c1` [GNF-2], the “4T1 cell proliferation in 3D culture, effect of co-dosing” value with 4T1 cells is “mitigates effects of compound 4”.

For `CC(C)(C)n1nc(-c2ccc(Cl)cc2)c2c(N)ncnc21` [PP2], the pKi (commonly −log10 of the Ki, conventionally taken in molar units) on c-Src is 7.48. Moreover, the GI50 (usually the concentration at which growth is held to half of that of the control) was 48 µM in the assay with HT-29; > 100 µM in the assay with SK-BR-3; > 100 µM in the assay with MCF7; 14 µM in the assay on MDA-MB-453; 17 µM in the assay with NIH-3T3. In addition, the “inhibition of ErbB2 in profiling” value on ErbB2 was “significantly inhibits”. The “inhibition of ErbB3 in profiling” value on ErbB3 is reported as “significantly inhibits”. The “number of kinases with >95% displacement from an immobilized ligand” value in [1] came out at 56. The “number of kinases with >99% displacement from an immobilized ligand” value in assay [1] is listed as 24.

Take `Cc1nc(Nc2ncc(C(=O)Nc3c(C)cccc3Cl)s2)cc(N2CCN(CCO)CC2)n1` [dasatinib]: in assay [2], the S35 selectivity score is recorded as 0.27.
